The text below walks through data of patent US12590071B2, “Hydrazone derivative in which terminal amine group is substituted with aryl group or heteroaryl group, and use thereof” (KOREA INSTITUTE OF SCIENCE AND TECHNOLOGY, priority 2018, dated 2026).

One data set deals with T1, CYP1A2 (Homo sapiens, UniProt P05177).
T1 construct: human liver microsomes (0.25 mg/mL); from tissue; host or cells: human liver microsomes
T1 sequence (P05177 1-516): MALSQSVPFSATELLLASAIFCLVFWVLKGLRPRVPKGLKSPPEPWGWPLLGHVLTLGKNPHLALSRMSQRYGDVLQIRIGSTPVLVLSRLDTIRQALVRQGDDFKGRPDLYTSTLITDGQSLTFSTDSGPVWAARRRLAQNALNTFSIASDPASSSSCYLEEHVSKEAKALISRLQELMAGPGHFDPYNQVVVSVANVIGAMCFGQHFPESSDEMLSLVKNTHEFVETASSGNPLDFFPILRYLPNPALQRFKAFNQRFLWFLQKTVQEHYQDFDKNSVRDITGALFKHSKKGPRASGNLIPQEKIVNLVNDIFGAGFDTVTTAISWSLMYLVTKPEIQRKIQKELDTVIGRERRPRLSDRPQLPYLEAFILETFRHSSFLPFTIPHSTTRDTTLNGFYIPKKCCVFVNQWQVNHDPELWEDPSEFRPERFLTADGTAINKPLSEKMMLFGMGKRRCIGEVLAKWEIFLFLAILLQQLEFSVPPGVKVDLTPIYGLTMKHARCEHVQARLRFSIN
Put plainly: Inhibition of CYP coenzyme activity in human liver microsomes. It is filed as in vitro ADME. The note with it: compound 10 PM (so in the source); human liver microsomes 0.25 mg/mL; substrate phenacetin; 15 minutes. Put shortly: (§1)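 Human liver microsomes (0.25 mg/mL) in 0.1 M phosphate pH 7.4 with a substrate cocktail (phenacetin 50 μM, diclofenac 10 μM, S-mephenytoin 100 μM, dextromethorphan 5 μM, midazolam 2.5 μM) and compound at 0 or 10 μM. Preincubated 5 min at 37 °C, then 15 min with NADPH system. Metabolites quantified by LC-MS/MS (MRM).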

The next data set deals with T2, CYP2C9 (Homo sapiens, UniProt P11712).
T2 construct: human liver microsomes (0.25 mg/mL); from tissue; host or cells: human liver microsomes
The description is as above. It is filed as in vitro ADME. The note with it: compound 10 PM (so in the source); human liver microsomes 0.25 mg/mL; substrate diclofenac; 15 minutes. Put shortly:
as §1

The target in a further data set is T3, CYP2C19 (Homo sapiens, UniProt P33261).
T3 construct: human liver microsomes (0.25 mg/mL); from tissue; host or cells: human liver microsomes
Described as above. Type of data set: in vitro ADME. The note with it: compound 10 PM (so in the source); human liver microsomes 0.25 mg/mL; substrate S-mephenytoin; 15 minutes. Put shortly: as §1

The target of a further data set is T4, CYP2D6 (Homo sapiens, UniProt P10635).
T4 construct: human liver microsomes (0.25 mg/mL); from tissue; host or cells: human liver microsomes
Described as above. Type of data set: in vitro ADME. Conditions: compound 10 PM (so in the source); human liver microsomes 0.25 mg/mL; substrate dextromethorphan; 15 minutes. Put shortly: as §1

Data set [1] in a line: Liver microsomal stability (human). It is filed as in vitro ADME. The note with it: amount of substrate remaining; 1 μM, 0.25 mg/mL microsomes, 37° C., 30 minutes. The essentials:
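Compound at 1 μM with microsomes (0.25 mg/mL each species) in 0.1 M phosphate buffer pH 7.4, preincubated 5 min at 37 °C, then 30 min at 37 °C after NADPH-generating system addition. Quenched with acetonitrile plus internal standard; remaining substrate measured by LC-MS/MS.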

A further data set deals with T5, CYP3A4 (Homo sapiens, UniProt P08684).
T5 construct: human liver microsomes (0.25 mg/mL); from tissue; host or cells: human liver microsomes
Put plainly: Inhibition of CYP coenzyme activity in human liver microsomes. Type of data set: in vitro ADME. Also on record: scale not given here. Conditions: compound 10 PM (so in the source); human liver microsomes 0.25 mg/mL; substrate midazolam; 15 minutes. Put shortly:
as §1

The nature of data set [2]: Pharmacokinetics in SD rat (plasma PK parameters). It is filed as in vivo. Conditions: for AUCall / clearance / half-life / Cmax / Tmax: SD rat plasma; for F: SD rat, PO 10 mg/kg versus IV. As for the experimental part:
Specifically, an SD rat of 7 to 8 weeks of age (Core Tech, Hana Trading Co., Ltd.) having a body weight of about 250 g to 300 g was purchased, and was managed in a simple breeding room for small animals set to a temperature of 22° C.±2° C., a relative humidity of 50%±5%, a lighting time of 12 hours (light up at 8:00 A.M., turn off at 8:00 P.M.), and an illuminance of 150 lux to 300 lux. During the entire test period, feed was freely provided, RO water was freely provided, and fasting was performed for 16 hours before the oral administration of a drug. After preparing a drug under the conditions shown in Table 5 below, the drug was intravenously injected (IV) or orally administered (PO). 500 µL of transfused blood was collected in a tube containing sodium heparin and centrifuged at 2° C. to 8° C. at 8,000 rpm for 6 minutes to obtain plasma from the blood. The obtained plasma was added to 180 μL of acetonitrile containing internal standard materials, vortexed, and then centrifuged at 15,000 rpm at 4° C. for 5 minutes to obtain a supernatant. The obtained supernatant was analyzed by LC-MS/MS.
Specific PK parameters were acquired using the Phoenix WinNonlin version 6.4 program (Phersight, USA) and wore calculated with a non-compartmental analysis model.

T3 sequence (P33261 whole entry): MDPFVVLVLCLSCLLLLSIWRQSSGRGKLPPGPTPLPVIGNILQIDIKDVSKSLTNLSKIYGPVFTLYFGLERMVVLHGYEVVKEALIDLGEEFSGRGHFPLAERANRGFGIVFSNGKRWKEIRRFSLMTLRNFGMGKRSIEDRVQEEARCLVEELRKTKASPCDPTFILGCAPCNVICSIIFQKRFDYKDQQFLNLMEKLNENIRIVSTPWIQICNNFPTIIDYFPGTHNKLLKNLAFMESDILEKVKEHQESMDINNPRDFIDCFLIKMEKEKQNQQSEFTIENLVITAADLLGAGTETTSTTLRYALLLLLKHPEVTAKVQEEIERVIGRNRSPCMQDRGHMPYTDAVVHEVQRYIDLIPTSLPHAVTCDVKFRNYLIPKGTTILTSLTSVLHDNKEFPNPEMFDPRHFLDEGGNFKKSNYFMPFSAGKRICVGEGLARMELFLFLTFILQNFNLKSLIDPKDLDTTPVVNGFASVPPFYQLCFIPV
T2 sequence (P11712 whole entry): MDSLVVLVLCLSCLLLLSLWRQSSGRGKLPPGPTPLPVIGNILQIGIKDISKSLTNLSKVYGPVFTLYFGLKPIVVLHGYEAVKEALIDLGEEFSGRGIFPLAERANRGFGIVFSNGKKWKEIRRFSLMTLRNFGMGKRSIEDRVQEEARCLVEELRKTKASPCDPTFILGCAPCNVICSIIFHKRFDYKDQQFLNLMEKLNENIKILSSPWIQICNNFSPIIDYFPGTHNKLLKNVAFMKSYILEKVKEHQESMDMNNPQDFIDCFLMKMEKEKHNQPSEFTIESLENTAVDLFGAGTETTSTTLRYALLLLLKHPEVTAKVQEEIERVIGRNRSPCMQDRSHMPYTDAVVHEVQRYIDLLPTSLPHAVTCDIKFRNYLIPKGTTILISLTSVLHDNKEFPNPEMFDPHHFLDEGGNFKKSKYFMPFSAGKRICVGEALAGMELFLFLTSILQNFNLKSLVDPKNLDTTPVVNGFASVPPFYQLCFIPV
T5 sequence (P08684 whole entry): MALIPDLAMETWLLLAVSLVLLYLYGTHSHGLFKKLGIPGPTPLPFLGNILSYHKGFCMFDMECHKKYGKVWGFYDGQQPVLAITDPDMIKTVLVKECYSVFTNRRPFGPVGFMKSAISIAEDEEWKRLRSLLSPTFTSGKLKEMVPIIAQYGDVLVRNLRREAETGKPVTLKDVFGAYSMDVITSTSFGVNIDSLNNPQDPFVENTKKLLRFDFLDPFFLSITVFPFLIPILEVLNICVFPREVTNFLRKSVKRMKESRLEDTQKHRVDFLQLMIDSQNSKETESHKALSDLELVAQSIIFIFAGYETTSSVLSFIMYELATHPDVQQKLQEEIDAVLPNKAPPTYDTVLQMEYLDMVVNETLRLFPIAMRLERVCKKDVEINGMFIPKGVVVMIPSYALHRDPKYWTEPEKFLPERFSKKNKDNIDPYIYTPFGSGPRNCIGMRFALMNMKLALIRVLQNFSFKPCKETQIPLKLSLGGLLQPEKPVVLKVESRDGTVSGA
T4 sequence (P10635 whole entry): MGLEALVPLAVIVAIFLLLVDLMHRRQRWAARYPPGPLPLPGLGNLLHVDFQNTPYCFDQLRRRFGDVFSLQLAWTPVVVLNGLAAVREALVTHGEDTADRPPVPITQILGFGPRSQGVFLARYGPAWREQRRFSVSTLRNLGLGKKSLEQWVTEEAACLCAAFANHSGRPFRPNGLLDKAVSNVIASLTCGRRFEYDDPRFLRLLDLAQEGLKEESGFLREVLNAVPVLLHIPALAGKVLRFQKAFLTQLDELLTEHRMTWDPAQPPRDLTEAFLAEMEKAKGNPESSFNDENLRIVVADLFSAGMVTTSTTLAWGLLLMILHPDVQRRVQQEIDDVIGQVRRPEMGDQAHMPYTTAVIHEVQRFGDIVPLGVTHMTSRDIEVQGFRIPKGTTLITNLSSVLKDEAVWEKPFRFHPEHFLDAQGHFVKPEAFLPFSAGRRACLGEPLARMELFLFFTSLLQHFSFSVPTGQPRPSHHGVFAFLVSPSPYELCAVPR

For the compound `N#CC(C#N)=NNc1ccc(-c2ncccn2)cc1` [Compound 1, (4-(pyrimidin-2-yl)phenyl)carbonohydrazonoyl dicyanide], the “inhibition effects of CYP coenzyme activity, CYP1A2” value (from here on “inhibition effects … CYP1A2”) at CYP1A2 was determined as 76.9. In addition, on CYP2C9, the “inhibition effects of CYP coenzyme activity, CYP2C9” value (from here on “inhibition effects … CYP2C9”) came to 63.2. Moreover, on CYP2C19, the “inhibition effects of CYP coenzyme activity, CYP2C19” value (from here on “inhibition effects … CYP2C19”) came to 90.7. For the same compound, the “inhibition effects of CYP coenzyme activity, CYP2D6” value (shortened to “inhibition effects … CYP2D6”) on CYP2D6 is given as 98.4. The “liver microsomal stability, Human (%)” value in data set [1] was determined as 44.1%. For the same compound, at CYP3A4, the “inhibition effects of CYP coenzyme activity, CYP3A4” value (shortened to “inhibition effects … CYP3A4”) is recorded as 89.4. In data set [2] (IV 1 mg/kg), the AUCall was 7260.0 ± 580.1 hr, ng/mL; the clearance worked out at 11.5 ± 0.9 mL/min/kg; the half-life was 1.1 ± 1 h. Further, in data set [2] (PO 10 mg/kg), the AUCall is reported as 4652.8 ± 1158.9 hr, ng/mL; the Cmax turned out to be 1840 ± 609 ng/mL; the time of peak concentration (Tmax) worked out at 1.7 ± 2.9 h; the half-life was 1.6 ± 1.6 h. This compound returned a F in data set [2] of 32%.
Turning to `N#CC(C#N)=NNc1ccc(-c2ncc(F)cn2)cc1` [Compound 2, (4-(5-fluoropyrimidin-2-yl)phenyl)carbonohydrazonoyl dicyanide], the “inhibition effects … CYP1A2” value against CYP1A2 came to 84.3. Further, on CYP2C9, the “inhibition effects … CYP2C9” value is given as 57.7. At CYP2C19, the “inhibition effects … CYP2C19” value came to 88.8. In addition, the “inhibition effects … CYP2D6” value at CYP2D6 is reported as 74.3. Moreover, the “liver microsomal stability, Human (%)” value in data set [1] was 92.7%. Further, the “inhibition effects … CYP3A4” value at CYP3A4 is listed as above 100. For the same compound, in data set [2] (IV 1 mg/kg), the AUCall is recorded as 7335.6 ± 1794.1 hr, ng/mL; the highest concentration (Cmax) is 4280 ± 1390 ng/mL; the Tmax worked out at 5.5 ± 1 h; the clearance was found to be 2.4 ± 0.7 mL/min/kg. For the same compound, the half-life in data set [2] (IV 1 mg/kg) is 1.2 ± 0.3 h. In addition, the AUCall in data set [2] (PO 10 mg/kg) is reported as 19890.5 ± 6049.3 hr, ng/mL. The compound also came in with a F in data set [2] of 27.1%.
As to `Cc1ncc(-c2ccc(NN=C(C#N)C#N)cc2)s1` [Compound 11, (4-(2-methylthiazol-5-yl)phenyl)carbonohydrazonoyl dicyanide], at CYP1A2, the “inhibition effects … CYP1A2” value turned out to be 80.1. Moreover, on CYP2C9, the “inhibition effects … CYP2C9” value is 33.2. In addition, at CYP2C19, the “inhibition effects … CYP2C19” value worked out at 83.4. The “inhibition effects … CYP2D6” value on CYP2D6 came out at 81.9. In data set [1], the “liver microsomal stability, Human (%)” value turned out to be 87.5%. For the same compound, the “inhibition effects … CYP3A4” value on CYP3A4 is reported as 97.6. Also, in data set [2] (IV 2 mg/kg), the AUCall is recorded as 11800.37 hr, ng/mL; the maximum concentration (Cmax) worked out at 10700 ng/mL; the time to peak (Tmax) came to 0.08 h; the clearance was determined as 2.84 mL/min/kg. The half-life in data set [2] (IV 2 mg/kg) is 1.05 h. Further, in data set [2] (PO 10 mg/kg), the AUCall is on record as 19169.2 hr, ng/mL; the Cmax turned out to be 6900 ng/mL; the Tmax is 0.25 h; the half-life was 2.96 h. This compound showed a F in data set [2] of 32.5%.
`N#CC(C#N)=NNc1ccc(-c2cnc3ccnn3c2)cc1` [Compound 50, (4-(pyrazolo[1,5-a]pyrimidin-6-yl)phenyl)carbonohydrazonoyl dicyanide]: the “inhibition effects … CYP1A2” value on CYP1A2 worked out at 80.7. Also, on CYP2C9, the “inhibition effects … CYP2C9” value is listed as 73. Also, the “inhibition effects … CYP2C19” value against CYP2C19 was 83.8. Further, the “inhibition effects … CYP2D6” value at CYP2D6 is on record as above 100. Also, in data set [1], the “liver microsomal stability, Human (%)” value is 81.1%. Further, the “inhibition effects … CYP3A4” value against CYP3A4 is recorded as 95. Further, in data set [2] (IV 1 mg/kg), the AUCall is listed as 8149.7 ± 1421.0 hr, ng/mL; the clearance is 2 ± 0.3 mL/min/kg; the half-life was 1.9 ± 0.3 h. In data set [2] (PO 10 mg/kg), the AUCall is 6726.6 ± 2700.2 hr, ng/mL; the highest concentration (Cmax) came to 1330 ± 788 ng/mL; the Tmax was 5 ± 2 h. This compound gave a F in data set [2] of 8.3%.
Regarding `Cc1cnc(C(=O)Nc2nc3ccc(NN=C(C#N)C#N)cc3s2)cn1` [Compound 93, (2-(5-methylpyrazine-2-carboxamido)benzo[d]thiazol-6-yl)carbonohydrazonoyl dicyanide], the “inhibition effects … CYP1A2” value against CYP1A2 was determined as 80.7. Also, the “inhibition effects … CYP2C9” value against CYP2C9 is reported as 45.5. Besides, at CYP2C19, the “inhibition effects … CYP2C19” value amounted to 91.6. The “inhibition effects … CYP2D6” value against CYP2D6 was 85.6. Besides, in data set [1], the “liver microsomal stability, Human (%)” value amounted to 83.9%. Besides, the “inhibition effects … CYP3A4” value on CYP3A4 stood at 91.5. Also, in data set [2] (IV 1 mg/kg), the AUCall is recorded as 6059.4 ± 548.0 hr, ng/mL; the clearance is 2.7 ± 0.3 mL/min/kg; the half-life is 1.7 ± 0.1 h. In addition, in data set [2] (PO 10 mg/kg), the AUCall is recorded as 13884.8 ± 3420.9 hr, ng/mL; the highest level (Cmax) was 2570 ± 423 ng/mL; the Tmax amounted to 5 ± 1.2 h. The F in data set [2] was found to be 22.9%.
